Laboratory results taken from patent publication US20180200257A1, “METHODS FOR THE TREATMENT OF INFLAMMATORY DISORDERS” (Galapagos NV, priority 2015, published 2018).

Test system: subjects with moderately to severely active RA who have an inadequate response to methotrexate (MTX)
Test: Study 2 (monotherapy) - ACR responses (ACR20/50/70)
Assay type: in vivo, human
Source text: The terms “ACR20”, “ACR50” and “ACR70” as used herein are scores which indicate how much a patient's rheumatoid arthritis has improved according to criteria set out by the American College of Rheumatology (ACR). The ACR score represents a percentage. An ACR20 score means that a person's RA has improved by 20%, an ACR50 score means it has improved by 50%, and an ACR70 score means it has improved by 70%. Specifically, to qualify for an ACR20 score, a person with RA must have at least 20% fewer tender joints and at least 20% fewer swollen joints. In addition the patient must show a 20% improvement in at least three of the following five areas: the person's overall (global) assessment of his or her own RA, the physician's global assessment of the person's RA, the person's assessment of his or her own pain, the person's assessment of his or her own physical functioning, and the results of an erythrocyte sedimentation rate or C-reactive protein (CRP) blood test (both of which test for inflammation). ACR50 and ACR70 scores use the same criteria but require 50% and 70% improvement, respectively, (Felson et al., 1993). In the data presented herein the CRP blood test is used.
Randomized, double-blind, placebo-controlled, multicenter, phase IIb dose finding study of Compound 1 (dosed as a [Compound 1:HCl:3H2O]) administered for 24 weeks as monotherapy to subjects with moderately to severely active rheumatoid arthritis who have an inadequate response to methotrexate alone
Double-blind, placebo-controlled, monotherapy study in subjects with moderately to severely active RA who have an inadequate response to methotrexate (MTX) (oral or parenteral).
280 subjects randomized to one of 3 doses of Compound 1 (dosed as a [Compound 1:HCl:3H2O]) or to placebo, given once daily (q.d.).
Twelve weeks of treatment with Compound 1 (dosed as a [Compound 1:HCl:3H2O]) at 50 mg, 100 mg, or 200 mg q.d.; or placebo. At Week 12, all subjects on placebo and the subjects on the 50 mg dose who have not achieved 20% improvement in swollen joint count (SJC66) and tender joint count (TJC68) will be assigned to 100 mg q.d. in a blinded fashion and will continue treatment until Week 24. Subjects in the other groups will maintain their randomized treatment until Week 24.
The American College of Rheumatology (ACR) composite score, which evaluates clinical improvement relative to an initial assessment, is a commonly accepted efficacy end point for clinical trials in patients with rheumatoid arthritis. The ACR score correspond to a percentage improvement in pre-set parameters, and therefore measures the evolution of the disease in a patient. For example, ACR20 denotes at least 20% improvement in tender and swollen joint counts and in three of the following end points: global assessment by the patient, global assessment by the doctor, C reactive protein (CRP), patient's pain Visual Analogue Scale and Health Assessment Questionnaire Score. The number of swollen joints, ESR and CRP correlate with radiographic progression of joint damage, whereas tender joint counts, as well as global assessments by doctors and patients, and patients' reports of pain, are sensitive to change in clinical outcomes. Physical function, as assessed by the Health Assessment Questionnaire Score, is a potent predictor of the risk of disability in rheumatoid arthritis (Felson and American College of Rheumatology Committee to Reevaluate Improvement Criteria, 2007; Felson et al., 1993).
In particular, the list of parameters used to assess ACR score can be found in the Table XCVI below and the results of the ACR responses at week 12 via either NRI or LOCF are shown in the tables below. The Hommel-corrected p-value for the pairwise comparisons of each group with placebo is shown. […]

[1] = 100 mg q.d., week 4, 12 weeks results
[2] = 100 mg q.d., week 4, 24 weeks results
[3] = 100 mg q.d., week 8, 24 weeks results
[4] = 100 mg q.d., week 12, 12 weeks results
[5] = 100 mg q.d., week 12, 24 weeks results
[6] = 100 mg q.d., week 16, 24 weeks results
[7] = 100 mg q.d., week 20, 24 weeks results
[8] = 100 mg q.d., week 24, 24 weeks results
[9] = 100 mg q.d., week 8, 12 weeks results
[10] = 200 mg q.d., week 1, 12 weeks results
[11] = 200 mg q.d., week 1, 24 weeks results
[12] = 200 mg q.d., week 2, 12 weeks results
[13] = 200 mg q.d., week 2, 24 weeks results
[14] = 200 mg q.d., week 4, 12 weeks results
[15] = 200 mg q.d., week 4, 24 weeks results
[16] = 200 mg q.d., week 8, 24 weeks results
[17] = 200 mg q.d., week 12, 12 weeks results
[18] = 200 mg q.d., week 12, 24 weeks results
[19] = 200 mg q.d., week 16, 24 weeks results
[20] = 200 mg q.d., week 20, 24 weeks results
[21] = 200 mg q.d., week 24, 24 weeks results
[22] = 200 mg q.d., week 8, 12 weeks results

## O=C(Nc1nc2cccc(-c3ccc(CN4CCS(=O)(=O)CC4)cc3)n2n1)C1CC1 [Compound 1, cyclopropanecarboxylic acid {5-[4-(1,1-dioxo-thiomorpholin-4-ylmethyl)-phenyl]-[1,2,4]triazolo[1,5-a]pyridin-2-yl}-amide]
[1]
  ACR20 (NRI): 44.3%
  ACR50 (LOCF): 18.6%
  ACR50 (NRI): 18.6%
  ACR70 (LOCF): 5.7%
  ACR70 (NRI): 5.7%
[2]
  ACR20 (LOCF): 44.3%
  ACR20 (NRI): 44.3%
  ACR50 (LOCF): 18.6%
  ACR50 (NRI): 18.6%
  ACR70 (LOCF): 5.7%
  ACR70 (NRI): 5.7%
[3]
  ACR50 (NRI): 25.7%
  ACR70 (NRI): 11.4%
[4]
  ACR50 (NRI): 34.3%%
  ACR70 (NRI): 18.6%%
[5]
  ACR50 (NRI): 35.7%
  ACR70 (NRI): 18.6%
[6]
  ACR50 (NRI): 38.6%
  ACR70 (NRI): 17.1%
[7]
  ACR50 (NRI): 41.4%
  ACR70 (NRI): 24.3%
[8]
  ACR50 (NRI): 40.0%
  ACR70 (NRI): 25.7%
[9]
  ACR20 (LOCF): 60.0%
  ACR20 (NRI): 61.4%
  ACR50 (LOCF): 25.7%
  ACR50 (NRI): 25.7%
  ACR70 (LOCF): 11.4%
  ACR70 (NRI): 11.4%
[10]
  ACR20 (LOCF): 39.1%
  ACR20 (NRI): 39.1%
  ACR50 (LOCF): 7.2%
  ACR50 (NRI): 7.2%
  ACR70 (LOCF): 1.4%
  ACR70 (NRI): 1.4%
[11]
  ACR20 (LOCF): 39.1%
  ACR20 (NRI): 39.1%
  ACR50 (LOCF): 7.2%
  ACR50 (NRI): 7.2%
  ACR70 (LOCF): 1.4%
  ACR70 (NRI): 1.4%
[12]
  ACR20 (LOCF): 53.6%
  ACR20 (NRI): 56.5%
  ACR50 (LOCF): 21.7%
  ACR50 (NRI): 21.7%
  ACR70 (LOCF): 4.3%
  ACR70 (NRI): 4.3%
[13]
  ACR20 (LOCF): 56.5%
  ACR20 (NRI): 56.5%
  ACR50 (LOCF): 21.7%
  ACR50 (NRI): 21.7%
  ACR70 (LOCF): 4.3%
  ACR70 (NRI): 4.3%
[14]
  ACR20 (LOCF): 62.3%
  ACR20 (NRI): 63.8%
  ACR50 (LOCF): 23.2%
  ACR50 (NRI): 23.2%
  ACR70 (LOCF): 11.6%
  ACR70 (NRI): 11.6%
[15]
  ACR20 (LOCF): 63.8%
  ACR20 (NRI): 62.3%
  ACR50 (LOCF): 23.2%
  ACR50 (NRI): 23.2%
  ACR70 (LOCF): 11.6%
  ACR70 (NRI): 11.6%
[16]
  ACR50 (NRI): 33.3%
  ACR70 (NRI): 17.4%
[17]
  ACR50 (NRI): 43.5%%
  ACR70 (NRI): 13.0%%
[18]
  ACR50 (NRI): 43.5%
  ACR70 (NRI): 13.0%
[19]
  ACR50 (NRI): 40.6%
  ACR70 (NRI): 18.8%
[20]
  ACR50 (NRI): 44.9%
  ACR70 (NRI): 24.6%
[21]
  ACR50 (NRI): 44.9%
  ACR70 (NRI): 24.6%
[22]
  ACR20 (LOCF): 72.5%
  ACR20 (NRI): 73.9%
  ACR50 (LOCF): 33.3%
  ACR50 (NRI): 33.3%
  ACR70 (LOCF): 17.4%
  ACR70 (NRI): 17.4%
